Laboratory results taken from the NIST ThermoML archive (doi:10.1021/je400250u).

Key:
[1] = refractive index (Na D-line) (dimensionless); xn = mol fraction of the nth substance listed; details: 100 kPa, Liquid, Standard Abbe refractometry
[2] = xn = mol fraction of the nth substance listed; details: 100 kPa, Liquid; for viscosity: Capillary tube (Ostwald / Ubbelohde) method; for mass density: Vibrating tube method

C1CC[C@H]2CCCC[C@H]2C1 [cis-decahydronaphthalene] + CCCCCCCCCCC
Details	mass density, [2] [kg/m3]	refractive index, [1]	viscosity, [2] [mPa·s]
293.15 K, x1 = 0.1086	753.22	–	1.24
293.15 K, x1 = 0.2072	765.62	–	1.31
293.15 K, x1 = 0.3066	778.83	–	1.415
293.15 K, x1 = 0.4031	792.39	–	1.542
293.15 K, x1 = 0.5028	807.23	–	1.69
293.15 K, x1 = 0.5976	822.17	–	1.829
293.15 K, x1 = 0.6835	836.42	–	2.021
293.15 K, x1 = 0.7983	856.82	–	2.368
293.15 K, x1 = 0.8954	875.37	–	2.726
293.15 K, x1 = 1	896.85	–	3.355
298.15 K, x1 = 0.1086	749.55	1.4192	1.148
298.15 K, x1 = 0.2072	761.95	1.4242	1.208
298.15 K, x1 = 0.3066	775.16	1.4294	1.3
298.15 K, x1 = 0.4031	788.74	–	1.415
298.15 K, x1 = 0.4075	–	1.4352	–
298.15 K, x1 = 0.5028	803.55	–	1.554
298.15 K, x1 = 0.5059	–	1.4411	–
298.15 K, x1 = 0.592	–	1.4469	–
298.15 K, x1 = 0.5976	818.48	–	1.67
298.15 K, x1 = 0.6835	832.71	1.4532	1.84
298.15 K, x1 = 0.7983	853.1	1.4609	2.139
298.15 K, x1 = 0.8954	871.62	1.4686	2.458
298.15 K, x1 = 1	893.06	1.4776	3.011
303.15 K, x1 = 0.1086	745.85	–	1.062
303.15 K, x1 = 0.2072	758.26	–	1.112
303.15 K, x1 = 0.3066	771.47	–	1.201
303.15 K, x1 = 0.4031	785.05	–	1.326
303.15 K, x1 = 0.5028	799.85	–	1.424
303.15 K, x1 = 0.5976	814.77	–	1.53
303.15 K, x1 = 0.6835	828.99	–	1.682
303.15 K, x1 = 0.7983	849.36	–	1.949
303.15 K, x1 = 0.8954	867.86	–	2.233
303.15 K, x1 = 1	889.26	–	2.718
308.15 K, x1 = 0.1086	742.15	1.4151	0.977
308.15 K, x1 = 0.2072	754.56	1.4198	1.034
308.15 K, x1 = 0.3066	767.77	1.4251	1.111
308.15 K, x1 = 0.4031	781.35	–	1.215
308.15 K, x1 = 0.4075	–	1.431	–
308.15 K, x1 = 0.5028	796.14	–	1.307
308.15 K, x1 = 0.5059	–	1.4366	–
308.15 K, x1 = 0.592	–	1.4426	–
308.15 K, x1 = 0.5976	811.05	–	1.41
308.15 K, x1 = 0.6835	825.27	1.4487	1.546
308.15 K, x1 = 0.7983	845.62	1.4565	1.818
308.15 K, x1 = 0.8954	864.1	1.464	2.035
308.15 K, x1 = 1	885.46	1.4736	2.47
313.15 K, x1 = 0.1086	738.44	–	0.903
313.15 K, x1 = 0.2072	750.84	–	0.962
313.15 K, x1 = 0.3066	764.05	–	1.034
313.15 K, x1 = 0.4031	777.64	–	1.115
313.15 K, x1 = 0.5028	792.42	–	1.204
313.15 K, x1 = 0.5976	807.33	–	1.303
313.15 K, x1 = 0.6835	821.53	–	1.426
313.15 K, x1 = 0.7983	841.87	–	1.673
313.15 K, x1 = 0.8954	860.33	–	1.859
313.15 K, x1 = 1	881.65	–	2.252
318.15 K, x1 = 0.1086	734.71	1.4114	0.843
318.15 K, x1 = 0.2072	747.12	1.416	0.899
318.15 K, x1 = 0.3066	760.33	1.4213	0.964
318.15 K, x1 = 0.4031	773.91	–	1.038
318.15 K, x1 = 0.4075	–	1.4275	–
318.15 K, x1 = 0.5028	788.7	–	1.119
318.15 K, x1 = 0.5059	–	1.4331	–
318.15 K, x1 = 0.592	–	1.4383	–
318.15 K, x1 = 0.5976	803.6	–	1.209
318.15 K, x1 = 0.6835	817.79	1.4448	1.319
318.15 K, x1 = 0.7983	838.11	1.4536	1.505
318.15 K, x1 = 0.8954	856.55	1.4612	1.71
318.15 K, x1 = 1	877.85	1.4696	2.063
323.15 K, x1 = 0.1086	730.98	–	0.786
323.15 K, x1 = 0.2072	743.39	–	0.841
323.15 K, x1 = 0.3066	756.6	–	0.9
323.15 K, x1 = 0.4031	770.18	–	0.97
323.15 K, x1 = 0.5028	784.96	–	1.043
323.15 K, x1 = 0.5976	799.86	–	1.124
323.15 K, x1 = 0.6835	814.05	–	1.225
323.15 K, x1 = 0.7983	834.35	–	1.392
323.15 K, x1 = 0.8954	852.77	–	1.577
323.15 K, x1 = 1	874.05	–	1.898
